Measurements published in patent US12616203B2, “Use of 3-isoxazolidinones compounds as selective herbicides” (FMC Corporation, priority 2014, dated 2026).
Where two headings read alike, the source gives them in different places.

Columns and labels:
[1] = test system: Pennsylvania smartweed (PS); test: PRE greenhouse, 2,4-DC + sulfentrazone (Tables 3-3B), % control; format: in vivo, Polygonum pennsylvanicum; details: 28 DAT, g ai/ha by row: r7-35 2,4-DC 31.2/62.5/125/250/375 (3 rows each) + sulfentrazone 105/210/315 (cycling), r37-41 2,4-DC 31.2/62.5/125/250/375, r42-44 sulfentrazone 105/210/315
Method: (§1) Test compositions containing 2,4-DC Example 1B and sulfentrazone (Spartan® 4F, 39.6% active ingredient, FMC Corp.) and mixtures of 2-(2,4-dichlorophenyl)methyl-4,4-dimethyl-3-isoxazolidinone and sulfentrazone, were diluted with water to provide the appropriate test rate concentration.
(§2) The test weeds were Pennsylvania smartweed (PS) (Polygonum pennsylvanicum), Palmer amaranth (PA) (Amaranthus palmeri), velvetleaf (VL) (Abutilon theophrasti), green foxtail (GF) (Setaria viridis), morningglory (MG) (Ipomoea spp.), yellow nutsedge (YN) (Cyperus esculentus), purple nutsedge (PN) (Cyperus rotundus), and benghal dayflower (BD) (Commelina benghalensis). Crops included in the evaluation were corn, wheat, and cowpea. […]
(§3) The application rates are those shown in Table 3, 3A, an d 3B below for the individual herbicidal solutions and the herbicide compositions of the present invention. […] The control of weeds was evaluated in each experimental test at 28 days after treatment (DAT), 14 DAT for crops. […] Percent weed control was determined by a method similar to the 0 to 100 rating system disclosed in “Research Methods in Weed Science,” 2nd ed., B. Truelove, Ed.; Southern Weed Science Society; Auburn University, Auburn, Ala., 1977.

[2] = test system: sedges; test: Ex26 PRE greenhouse; format: in vivo; details: 28 DAT, weed and rate in the words
Excerpt: Treatments were applied at the time of planting to yellow nutsedge, purple nutsedge, and benghal dayflower. […] Flats were watered and fertilized routinely after treatment application.

[3] = test system: velvetleaf (VL); test: PRE greenhouse, 2,4-DC + sulfentrazone, % control; format: in vivo, Abutilon theophrasti; details: 28 DAT, g ai/ha by row: r7-35 2,4-DC 31.2/62.5/125/250/375 (3 rows each) + sulfentrazone 105/210/315 (cycling), r37-41 2,4-DC 31.2/62.5/125/250/375, r42-44 sulfentrazone 105/210/315
Method: as §1, §2, §3

[4] = test system: Corn; details: 21 DAT, PRE
Excerpt: (Ipomoea spp.); Italian ryegrass (Lolium perenne L. ssp. multiflorum, LOLMU). Crops tested included corn, wheat, cotton, cowpea, and bush bean.
Palmer amaranth, common ragweed, Pennsylvania smartweed, velvetleaf, wild oat, green foxtail, morningglory, and Italian ryegrass were screened. […] Thereafter flats were watered and fertilized routinely.

[5] = test system: Palmer amaranth (PA); test: PRE greenhouse, 2,4-DC + sulfentrazone, % control; format: in vivo, Amaranthus palmeri; details: 28 DAT, g ai/ha by row: r7-35 2,4-DC 31.2/62.5/125/250/375 (3 rows each) + sulfentrazone 105/210/315 (cycling), r37-41 2,4-DC 31.2/62.5/125/250/375, r42-44 sulfentrazone 105/210/315
Method: as §1, §2, §3

[6] = test system: weeds; test: Ex10 PRE greenhouse; format: in vivo; details: 28 DAT, weed and rate in the words
Excerpt: Treatments 1-12 of 2,4-DC and aclonifen tank-mix combinations follow same rates listed above. […] Sulfentrazone (Spartan 4F® 39.6%) at 280 g ai/ha, pendimethalin (Prowl 3.3®EC, 37.4%) at 784 g ai/ha, or S-metolachlor (Dual II Magnum® 82.4%) at 1084 g ai/ha were applied as commercial standards. Treatments were replicated 3 times and flats were watered after planting but before the treatment and lightly watered after treatment application. Thereafter flats were watered and fertilized routinely. […] Shepherd's-purse was rated at 21 and 28 DAT only, due to delayed emergence.

[7] = test system: green foxtail (GF); test: PRE greenhouse, 2,4-DC + sulfentrazone, % control; format: in vivo, Setaria viridis; details: 28 DAT, g ai/ha by row: r7-35 2,4-DC 31.2/62.5/125/250/375 (3 rows each) + sulfentrazone 105/210/315 (cycling)
Method: as §1, §2, §3

[8] = test system: yellow nutsedge (YN); test: PRE greenhouse, 2,4-DC + sulfentrazone, % control; format: in vivo, Cyperus esculentus; details: 28 DAT, g ai/ha by row: r8-16 2,4-DC 50/100/200 (3 rows each) + sulfentrazone 105/210/315 (cycling)
Method: as §1
(§4) The test weeds were Pennsylvania smartweed (PS) (Polygonum pennsylvanicum), Palmer amaranth (PA) (Amaranthus palmeri), velvetleaf (VL) (Abutilon theophrasti), green foxtail (GF) (Setaria viridis), morningglory (MG) (Ipomoea spp.), yellow nutsedge (YN) (Cyperus esculentus), purple nutsedge (PN) (Cyperus rotundus), and benghal dayflower (BD) (Commelina benghalensis). Crops included in the evaluation were corn, wheat, and cowpea.
(§5) For pre-emergence testing, four disposable fiber flats (6″ by 10″) for each rate of application of each herbicide solution were filled with top soil, to which seeds of each species were planted in furrows made by a template pressed on the top of the soil. The furrows with crop/weed seeds were covered with soil and were watered well before application of the test compounds. Flats designated for treatment were placed in a spray chamber having a static platform and a movable sprayer and height of the spray nozzle was 10.5 inches above the soil level. Once the sprayer was calibrated using water for spray volume of 30 gallons per acre, flats were sprayed with sprayer at a speed to receive a coverage equivalent of 30 gallons per acre.
The application rates are those shown in Table 3, 3A, an d 3B below for the individual herbicidal solutions and the herbicide compositions of the present invention. The pre-emergence flats were immediately placed in the greenhouse and watered lightly after treatment for herbicide activation. Thereafter they were regularly watered and feterilized for the duration of the test. The control of weeds was evaluated in each experimental test at 28 days after treatment (DAT), 14 DAT for crops. The results, shown as an average of the replications, were compared with results observed in untreated control flats in the same tests. Percent weed control was determined by a method similar to the 0 to 100 rating system disclosed in “Research Methods in Weed Science,” 2nd ed., B. Truelove, Ed.; Southern Weed Science Society; Auburn University, Auburn, Ala., 1977.

[9] = test system: weeds; Sugarcane (CTC20); test: Ex23 PRE greenhouse; details: 28 DAT, weed and rate in the words
Method: (Ipomoea spp). The tested crop in this study was Sugarcane (CTC20).
Sugarcane was direct seeded into 6″ plastic pots using 3-4″ sugarcane setts, oriented bud up, with bud leaf shield removed. 2,4 DC and sulfentrazone were applied alone or combined as tank-mix at each rate mentioned below. […] Treatments were replicated 3 times. […] Thereafter flats were watered and fertilized routinely. […] Visual percent sugarcane injury was recorded at 21 and 28 DAT, using a scale of 0 (no injury, observed as bleaching, stunting or necrosis) to 100 (complete plant death).

[10] = test system: benghal dayflower (BD); test: PRE greenhouse, 2,4-DC + sulfentrazone, % control; format: in vivo, Commelina benghalensis; details: 28 DAT, g ai/ha by row: r8-16 2,4-DC 50/100/200 (3 rows each) + sulfentrazone 105/210/315 (cycling)
Method: as §1, §4, §5
The application rates are those shown in Table 3, 3A, an d 3B below for the individual herbicidal solutions and the herbicide compositions of the present invention. The pre-emergence flats were immediately placed in the greenhouse and watered lightly after treatment for herbicide activation. […] The control of weeds was evaluated in each experimental test at 28 days after treatment (DAT), 14 DAT for crops. […] Percent weed control was determined by a method similar to the 0 to 100 rating system disclosed in “Research Methods in Weed Science,” 2nd ed., B. Truelove, Ed.; Southern Weed Science Society; Auburn University, Auburn, Ala., 1977.

[11] = test system: morningglory (MG); test: PRE greenhouse, 2,4-DC + sulfentrazone, % control; format: in vivo, Ipomoea spp.; details: 28 DAT, g ai/ha by row: r7-35 2,4-DC 31.2/62.5/125/250/375 (3 rows each) + sulfentrazone 105/210/315 (cycling), r37-41 2,4-DC 31.2/62.5/125/250/375, r42-44 sulfentrazone 105/210/315
Method: as §1, §2, §3

[12] = test system: purple nutsedge (PN); test: PRE greenhouse, 2,4-DC + sulfentrazone, % control; format: in vivo, Cyperus rotundus; details: 28 DAT, g ai/ha by row: r8-16 2,4-DC 50/100/200 (3 rows each) + sulfentrazone 105/210/315 (cycling)
Method: as §1, §2, §3

[13] = test system: weeds; corn, wheat, cotton, cowpea, and bush bean; test: Ex42 PRE greenhouse; format: in vivo; details: crop and rate in the words
Excerpt: Thereafter flats were watered and fertilized routinely.

[14] = r17-19 2,4-DC 50/100/200, r20-22 sulfentrazone 105/210/315, 105 g ai/ha
[15] = r17-19 2,4-DC 50/100/200, r20-22 sulfentrazone 105/210/315, 210 g ai/ha
[16] = r17-19 2,4-DC 50/100/200, r20-22 sulfentrazone 105/210/315, 315 g ai/ha

`Cc1nn(-c2cc(NS(C)(=O)=O)c(Cl)cc2Cl)c(=O)n1C(F)F` [sulfentrazone] was tested, and the “% Control PS” value [1] was 100%, the “weed control in words” value [2] was “alone controlled yellow nutsedge at all rates, benghal dayflower at 210 or 315 g and did not control purple nutsedge at any rate” and the “% Control VL” value [3] was 100%. For the same compound, the “crop injury, Sulfentrazone alone” value ([4]; sulfentrazone 105 g ai/ha) was 3%, the “crop injury, Sulfentrazone alone” value ([4]; sulfentrazone 210 g ai/ha) was 10% and the “crop injury, Sulfentrazone alone” value ([4]; sulfentrazone 315 g ai/ha) was 38%. The “% Control PA” value [5] was 100%, the “weed control in words” value [6] was “at 280 g provided control of all weeds except quackgrass, annual bluegrass, and blackgrass” and the “% Control GF” value ([7]; r37-41 2,4-DC 31.2/62.5/125/250/375, r42-44 sulfentrazone 105/210/315, 105 g ai/ha) was 84%. The “% Control GF” value ([7]; r37-41 2,4-DC 31.2/62.5/125/250/375, r42-44 sulfentrazone 105/210/315, 210 g ai/ha) was 100%, the “% Control YN” value [8, 14] was 85% and the “% Control YN” value [8, 15] was 95%. The “% Control YN” value [8, 16] was 100%, the “weed control in words” value [9] was “alone controlled hairy beggarticks at 315 g; all other weeds were controlled with all rates” and the “% Control BD” value [10, 14] was 72%. The “% Control BD” value [10, 15] was 88%, the “% Control BD” value [10, 16] was 90% and the “% Control MG” value [11] was 100%. For the same compound, the “% Control PN” value [12, 14] was 77%, the “% Control PN” value [12, 16] was 83% and the “crop safety in words” value [13] was “alone was safe on corn and bush bean only at 105 g, wheat and cowpea at 105 or 210 g 14 DAT”.
